Among the data in patent US20090131409A1, “1,4,5,6,7,8-HEXAHYDRO -PYRROLO[2,3-d]AZEPINES AND -IMIDAZO[4,5-d]AZEPINES AS MODULATORS OF NUCLEAR RECEPTOR ACTIVITY” (Wyeth, priority 2007, published 2009) are EC50 values, retold here.

Structures are written as SMILES.

The target of this assay is T1, Gal4/hFXR fusion protein (Homo sapiens, UniProt Q96RI1).
T1 sequence (Q96RI1 262-486 limits assumed): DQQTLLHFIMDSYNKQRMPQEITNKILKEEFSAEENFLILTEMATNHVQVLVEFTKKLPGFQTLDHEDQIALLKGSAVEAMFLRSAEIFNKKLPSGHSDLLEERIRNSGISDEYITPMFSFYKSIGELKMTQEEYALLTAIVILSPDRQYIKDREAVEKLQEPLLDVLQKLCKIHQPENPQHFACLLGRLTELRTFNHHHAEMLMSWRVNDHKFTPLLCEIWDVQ
The assay can be described thus: Gal4/hFXR fusion protein agonist activity in human 293 cells (luciferase reporter). A general note: Reporter assays use an easily measured gene product as a stand-in for the process of interest.
A word on the EC50: it is the concentration that produces a half-maximal response. Low readings indicate higher potency in that assay, high ones lower potency in that assay. In turn, `CC(C)OC(=O)C1CN(C(=O)c2cccc(C(F)(F)F)c2)CC(C)(C)c2cc(C#N)[nH]c21` (stereo not drawn) [iso-propyl 2-cyano-4,4-dimethyl-6-[3-(trifluoromethyl)benzoyl]-1,4,5,6,7,8-hexahydropyrrolo[2,3-d]azepine-8-carboxylate] came in with an EC50 of 2700 nM.
For the molecule `CC(C)OC(=O)C1CN(C(=O)c2ccc(F)cc2)CC(C)(C)c2cc(C#N)[nH]c21` (stereo not drawn) [isopropyl 2-cyano-6-(4-fluorobenzoyl)-4,4-dimethyl-1,4,5,6,7,8-hexahydropyrrolo[2,3-d]azepine-8-carboxylate], the EC50 amounted to 640 nM.
In the case of `CC(C)OC(=O)C1CN(C(=O)C2CCCCC2)CC(C)(C)c2cc(C#N)[nH]c21` (stereo not drawn) [iso-propyl 2-cyano-6-(cyclohexylcarbonyl)-4,4-dimethyl-1,4,5,6,7,8-hexahydropyrrolo[2,3-d]azepine-8-carboxylate], the EC50 was 1900 nM.
`CC(C)OC(=O)C1CN(C(=O)c2ccc(C#N)cc2)CC(C)(C)c2cc(C#N)[nH]c21` (stereo not drawn) [iso-propyl 2-cyano-6-(4-cyanobenzoyl)-4,4-dimethyl-1,4,5,6,7,8-hexahydropyrrolo[2,3-d]azepine-8-carboxylate] showed an EC50 of 5700 nM.
In the case of `CC(C)OC(=O)C1CN(C(=O)c2ccc(Cl)cc2)CC(C)(C)c2cc(C#N)[nH]c21` (stereo not drawn) [iso-propyl 6-(4-chlorobenzoyl)-2-cyano-4,4-dimethyl-1,4,5,6,7,8-hexahydropyrrolo[2,3-d]azepine-8-carboxylate] it was 4100 nM; in that of `CC(C)OC(=O)C1CN(C(=O)C2CCOCC2)CC(C)(C)c2cc(C#N)[nH]c21` (stereo not drawn) [isopropyl 2-cyano-4,4-dimethyl-6-(tetrahydro-2H-pyran-4-ylcarbonyl)-1,4,5,6,7,8-hexahydropyrrolo[2,3-d]azepine-8-carboxylate], 3300 nM.
With `CC(C)OC(=O)C1CN(C(=O)c2ccc(F)c(F)c2)CC(C)(C)c2cc(C#N)[nH]c21` (stereo not drawn) [isopropyl 2-cyano-6-(3,4-difluorobenzoyl)-4,4-dimethyl-1,4,5,6,7,8-hexahydropyrrolo[2,3-d]azepine-8-carboxylate], a half-maximal effect (EC50) was put at 280 nM.
For `CC(C)OC(=O)C1CN(C(=O)c2cccc(F)c2)CC(C)(C)c2cc(C#N)[nH]c21` (stereo not drawn) [isopropyl 2-cyano-6-(3-fluorobenzoyl)-4,4-dimethyl-1,4,5,6,7,8-hexahydropyrrolo[2,3-d]azepine-8-carboxylate] the value was 1300 nM; for `CC(C)OC(=O)C1CN(C(=O)c2cccc(Cl)c2)CC(C)(C)c2cc(C#N)[nH]c21` (stereo not drawn) [iso-propyl 6-(3-chlorobenzoyl)-2-cyano-4,4-dimethyl-1,4,5,6,7,8-hexahydropyrrolo[2,3-d]azepine-8-carboxylate], 1300 nM.
